Results published in PMC6158189, “A pharmacological probe identifies cystathionine β-synthase as a new negative regulator for ferroptosis” (Cell Death & Disease, 2018).

Key:
[1] = target: T1, endogenous hCBS in HepG2 cells (Homo sapiens, UniProt P35520); experiment: endogenous H2S in HepG2 cells (AzMC probe); type: cell-based; conditions: for decrease in H2S: HepG2
T1 construct: effects of CH004 on the activity of endogenous CBS by incubating with HepG2; endogenous in cells; host or cells: HepG2
T1 sequence (P35520 1-551): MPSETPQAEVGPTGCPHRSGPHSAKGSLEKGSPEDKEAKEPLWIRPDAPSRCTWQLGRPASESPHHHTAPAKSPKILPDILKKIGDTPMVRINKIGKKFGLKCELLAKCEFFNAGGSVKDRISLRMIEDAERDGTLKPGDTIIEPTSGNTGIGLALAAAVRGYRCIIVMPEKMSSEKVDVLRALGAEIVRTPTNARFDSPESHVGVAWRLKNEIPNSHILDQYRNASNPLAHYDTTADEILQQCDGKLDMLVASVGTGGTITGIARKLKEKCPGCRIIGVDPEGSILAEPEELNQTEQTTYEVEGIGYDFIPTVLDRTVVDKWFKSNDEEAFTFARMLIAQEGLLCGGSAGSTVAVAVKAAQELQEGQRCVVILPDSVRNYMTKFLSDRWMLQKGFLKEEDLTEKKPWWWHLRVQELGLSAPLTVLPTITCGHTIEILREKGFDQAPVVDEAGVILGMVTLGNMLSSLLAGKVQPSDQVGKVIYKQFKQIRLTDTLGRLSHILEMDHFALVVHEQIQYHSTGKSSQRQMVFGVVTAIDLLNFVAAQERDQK
Protocol: Fig. 3 The effect of CH004 on the activity of endogenous hCBS in cells. a CH004 dose-dependently elevates the levels of Hcys in HepG2 and HEK293T cells. HepG2 cells or HEK293T cells were incubated with indicated CH004 or DMSO (control) for 12 h. The amount of total Hcys in cells was measured by ELISA using Axis® Homocysteine EIA kit (IBL, AX51301) (“Materials and Methods” section). […] HepG2 cells were treated with indicated DMSO, CH004 or HA for 8 h before the staining with AzMC probe. The amount of the H2S (blue) was quantified and is shown in (c). Bars, 50 μm. Control (CTR), DMSO group (100%). A representative fluorescence image from three independent experiments is shown. Means ± SDS (n = 3). d CH004 elevates Hcys in the peripheral blood of rats. The total Hcys of the blood samples collected from the anesthetized rats at the 75 min time point (Materials and Methods) were quantified by ELISA (see above). Means ± SDS (n = 6).
H2S levels in living cells were detected using a H2S-specific fluorescent probe according to a protocol described previously[31],[55]. To measure H2S in transiently transfected HEK293T cells, the cells were seeded on poly-D-Lys-coated coverslips (Thermo Scientific, Waltham, MA, USA) in 12-well plates at a density of ~ 1 × 10^5 cells per well, and hCBS or hCSE plasmids were transiently transfected by X-tremeGENE HP DNA Transfection Reagent according to the manufacturer’s protocol (Roche, Basel, Switzerland). After 24 h, the transfected cells were treated with DMSO or inhibitors for another 8 h, followed by staining with 7-azide-4-methylcoumarin (AzMC; Sigma-Aldrich). Similarly, HEK293T cells stably expressing CBS WT, Q222A mutant or EV were seeded on poly-D-Lys-coated coverslips in 12-well plates for one day before treatment with DMSO or inhibitors for 8 h. After incubation with 50 μM AzMC at 37 °C for 30 min, the cells were washed 4 times with PBS, and the fluorescent images were recorded with excitation by 405 nm laser by using a A1Si (Nikon) confocal microscope. The intensity of the blue fluorescent signals, indicating the amount of H2S, was quantified by ImageJ software (NIH, Bethesda, ML). The H2S signal was then corrected for the background signal detected in HEK293T cells transiently or stably expressing of empty vector (HEK293T-EV) and normalized by the corresponding cell-occupying area and compared with the control (DMSO group, 100%). Similarly, the H2S signal in HepG2 cells was quantified by AzMC staining, corrected for the background signal outside the cells, normalized by the cell area and expressed as percentages of DMSO control (100%).
To elucidate the subcellular localization of H2S, HepG2 cells were seeded on poly-D-Lys-coated coverslips in 12-well plates. After treatment with DMSO or inhibitors for 8 h, cells were sequentially incubated with 200 nM Mito-Tracker® Green and 50 μM AzMC for 30 min at 37 °C in PBS, and then fluorescent images were taken using a confocal microscope.
Figure S9. The effect of AOAA on the level of endogenous H2S in HepG2 cells. […] HepG2 cells were incubated with 0 (DMSO control), 1, 5 or 10 mM AOAA for 8 h before staining with 50 μM AzMC. Upper panels, the overlaid images; middle panels, the corresponding fluorescent images (blue, H2S); the lower panels, the bright-field images. Bars: 50 μm. (B) Quantification of the mean fluorescent density of H2S (blue). The intensity of H2S was accordingly quantified and normalized by correcting for the background signal outside cells. Data was expressed as percentages of the control (DMSO group, 100%). Means ± SDs (n=3). One-way ANOVA with Bonferroni post-tests was used for the analysis. *, p< 0.05; ***, p< 0.001; n.s. no significance. The images are one representative from three independent experiments.

HepG2 cells = experiment: intracellular ROS (DCFH-DA, flow cytometry); type: cell-based, human; conditions: HepG2, 12 h
Protocol: Fig. 5 In situ reduction of CBS activity and H2S in mitochondria by CH004 is coupled with an increase of intracellular ROS. a, b CH004 dose-dependently elevates ROS levels in both HepG2 (a) and HEK293T cells (b). The cells were treated with CH004 for 12 h or with 1 mM H2O2 for 30 min before the staining with DCFH-DA (Molecular Probes) and the analyzsis by flow cytometry (“Materials and Methods” section). Means ± SDS (n = 3). […] HepG2 cells were incubated with indicated inhibitors for 8 h before staining with the mitochondria tracker Mito-tracker® Green (Invitrogen) and the AzMC probe. Cyan represents the colocalization of H2S (blue) and the mitochondria tracker (green). Bars: 50 μm. d hCBS co-localizes with the mitochondria in HepG2 and HEK293T cells. HepG2 and HEK293T cells were stained with an anti-CBS antibody (3E1, 1:200; Abnova) for hCBS (red), Mito-tracker® Green for the mitochondria (green) and DAPI for the nucleus (blue). […]
To investigate the intracellular ROS levels, HEK293T or HepG2 cells were seeded in 6-well plates for one day, then incubated with the indicated inhibitors and 1 mM H2O2 for 12 h and 30 min, respectively. After trypsinization and one wash in PBS, the collected cells were resuspended in PBS and incubated with 100 μM probe DCFH-DA for 30 min at 37 °C before being analyzed using an LSR Fortessa flow cytometer.

## Cn1nc(Cc2ccccc2)nc2c(=O)n(C)c(=O)nc1-2 [CH004, 3-benzyl-1,6-dimethylpyrimido[5,4-e][1,2,4]triazine-5,7(1H,6H)-dione]
[1]; 5 μM, 8 h
  decrease in H2S: ~ 50%
[1]; 20 μM, 8 h
  decrease in H2S: ~ 90%
[1]; 8 h, Mito-tracker Green and AzMC
  mitochondrial H2S: dose-dependently decreases
[1]; CH004 vs AOAA
  potency on inhibiting production of H2S in cells compared with AOAA: at least 1000 fold
HepG2 cells
  maximum increase of cellular ROS: ~ 2 fold
